# Measurements from PubChem BioAssay AID2610 (Broad Institute, 2010).
# Records with an inconclusive call do not appear. Activity calls are given as the source filed them.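 How the source made its calls: active means EC50 no more than tenfold above the top concentration tested, with valid fit and all samples agreeing; inconclusive means flat fit at 30 to 70% inhibition, poor fit, or split samples; inactive means EC50 beyond tenfold the top concentration tested.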
# Test system: BJeLR fibroblast viability, Alamar Blue fluorescence, 48 h
# Assay: BJeLR fibroblast growth inhibition, viability readout – cell-based, alamar blue fluorescence, 48 h, cherrypicked samples, dose response (AID 2610);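 further: BJ fibroblasts with hTERT plus SV40 large and small T and HRAS V12; EC50 for loss of viable cells so potency reflects cytotoxic compounds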
row,SMILES,EC50
1,N#CCc1ccc(NC(=O)/C=C/c2ccc([N+](=O)[O-])o2)cc1,1.1 µM
2,CCC1=Nc2cc(C(=O)NCc3ccco3)ccc2Sc2ccc(C)cc21,< 0.104 µM
3,O=C(/C=C/c1ccc([N+](=O)[O-])o1)NNC(=O)c1ccc(F)cc1,2.66 µM
4,Clc1ccccc1Nc1nnc(-c2ccncc2)s1,> 13.3 µM (inactive)
5,COC(=O)C1CN(C#N)N(c2ccc(Cl)cc2)C12c1ccccc1-c1ccccc12 (stereo unspecified),0.567 µM
6,CC(Oc1ccc(Cl)cc1Cl)c1nc(-c2ccc(NC(=O)c3cccnc3)cc2)no1 (stereo unspecified),1.58 µM
7,CNC1=C(N(C(C)=O)c2ccc(Br)cc2)C(=O)c2ccccc2C1=O,1.35 µM
8,C[C@@H]1C[C@H]2OC(=O)C3(CO3)[C@H]2[C@H](O)[C@]2(C)C(=O)C3OC3[C@@H]12 (stereo partly specified),2.83 µM
9,COc1ccc(C(C(=O)NC2CCCCC2)N(C(=O)CCl)c2ccc(C)cc2)cc1 (stereo unspecified),0.454 µM
10,COc1ccc(C2C(O)C(c3c[nH]c4ccccc34)=NN2C(=O)CCl)cc1 (stereo unspecified),0.307 µM
11,O=S(=O)(c1ccc2c(c1)C(=NO)c1cc(S(=O)(=O)N3CCCCC3)ccc1-2)N1CCCCC1,< 0.277 µM
12,COc1ccc(N2C(=O)/C(=C/c3ccc(C)o3)C(=O)NC2=S)cc1,> 13.3 µM (inactive)
13,COc1ccc(-c2nnc(NC(=O)c3ccc(S(=O)(=O)N4CCc5ccccc5C4)cc3)o2)cc1,2.6 µM
14,Nc1ncnc2c1ccn2[C@@H]1O[C@H](CO)[C@@H](O)[C@H]1O,< 0.104 µM
15,O=C(c1cc([N+](=O)[O-])ccc1N1CCOCC1)N1CCN(c2ccccc2)CC1,< 0.104 µM
16,COc1ccc2c(c1)sc(N)[n+]2Cc1cc(C)cc2cccnc12,0.266 µM
17,CCN(CC)CCN1C(=O)/C(=C\c2ccc(Cl)c([N+](=O)[O-])c2)SC1=Nc1ccc(OC)cc1,0.563 µM
18,CCOC(=O)c1c(CSC(=N)N)n(-c2ccc(C)cc2)c2cc(Br)c(OC(C)=O)cc12,> 13.3 µM (inactive)
19,ClC1=C(Cl)C(Cl)=C(Cl)C1=C/C=C/c1ccccc1,1.04 µM
20,O=c1c2ccccc2nc(/C=C/c2ccc([N+](=O)[O-])o2)n1-c1ccc(O)cc1,3.66 µM
21,COc1ccc(-c2coc3cc4oc(=O)c5ccccc5c4cc23)cc1F,< 0.104 µM
22,COc1ccc(OC)c2sc(N(CCCN(C)C)C(=O)c3ccc(S(=O)(=O)N4CCc5ccccc5C4)cc3)nc12,0.108 µM

row,SMILES,EC50
1,COc1ccc2nc(C)cc(N/N=C/c3ccc(F)cc3)c2c1,0.292 µM
2,O=C(NCCOc1cccnc1)c1ccc(OC2CCN(Cc3ccccn3)CC2)cc1,< 0.0919 µM
3,COc1ccc(/C=N\NC(=O)c2cccc(F)c2)cc1COc1ccccc1,< 0.104 µM
4,CCCCCN=Cc1c(C)[nH]n(-c2nc3ccccc3s2)c1=O,> 13.3 µM (inactive)
5,CCC(C)C(=O)OCC1(c2ccc(C)cc2OC(=O)C(C)C)CO1 (stereo unspecified),> 13.3 µM (inactive)
6,Cc1nc(N)nc(N)c1CCCc1ccc(Cl)c(Cl)c1,> 13.3 µM (inactive)
7,COc1ccc(S(=O)(=O)N2CCOCC2)cc1NC(=O)CCNC(=O)c1ccc(Br)cc1,0.44 µM
8,CCc1ccc(/C=C2/SC(=S)N(CCC(=O)NCCCN3CCOCC3)C2=O)cc1,2.42 µM
9,Cc1cc(N)c2cc(NC(=O)/C=C/c3ccccc3Cl)ccc2n1,1.24 µM
10,CC(C)[C@]12O[C@H]1[C@@H]1O[C@]13[C@]1(O[C@H]1C[C@H]1C4=C(CC[C@@]13C)C(=O)OC4)[C@@H]2O,< 0.104 µM
11,COc1ccc(F)cc1CN1CCN(C(=O)CCC(=O)Nc2nnc(CC(C)C)s2)CC1,> 13.3 µM (inactive)
12,CCCCCCCCCC[n+]1cccc2c3ccccc3ccc21,8.03 µM
13,COCCCNC(=O)c1ccc2c3c(onc13)-c1ccccc1C2=O,3.15 µM
14,CCOC(=O)c1c(C)[nH]c2c1-c1ccccc1C(=O)C2=O,0.492 µM
15,CCOc1ccc(Nc2nc(N)nc(CCl)n2)cc1,0.391 µM
16,Cc1cccc(Nc2nc(N)nc(CCl)n2)c1C,0.468 µM
17,CCN1/C(=C/c2ccc3cc(C)ccc3[n+]2CC)Sc2ccc3sccc3c21,< 0.104 µM
18,Nc1nc(CCl)nc(Nc2ccc3ccccc3c2)n1,0.192 µM
19,Nc1ccc2c(c1)C(=O)C(=O)c1ccccc1-2,1.72 µM
20,CCCCC(=O)NC(c1ccc(C(C)C)cc1)c1ccc2cccnc2c1O (stereo unspecified),6.42 µM
21,CCOc1ccc(C(=O)c2cc([N+](=O)[O-])ccc2N2CCOCC2)cc1,< 0.104 µM
22,CC(=O)c1ccc(NC(=O)N2CCc3ccccc3C2)cc1,> 13.3 µM (inactive)

row,SMILES,EC50
1,COc1ccc(/C=N/NC(=O)c2[nH]c3ccc(Br)cc3c2-c2ccccc2)cc1,< 0.0703 µM
2,C=C1C(=O)O[C@@H]2C[C@@H](C)[C@H]3C=CC(=O)[C@]3(O)C[C@@H]12,4.55 µM
3,CCCOc1ccc(C(=O)C(CCC(CNCC)C(=O)c2ccc(OCCC)cc2)CNCC)cc1 (stereo unspecified),0.638 µM
4,O=C(/C=C/c1ccco1)Nc1ccc(Oc2ccccc2)cc1,> 13.3 µM (inactive)
5,Cn1c(/C=C/c2ccc([N+](=O)[O-])o2)nc2ccccc2c1=O,0.544 µM
6,Cc1nc2ccc(CN(C)c3ccc(C(=O)N[C@@H](CCC(=O)O)C(=O)O)s3)cc2c(=O)[nH]1,> 13.3 µM (inactive)
7,COc1ccc2c(C)nc(Nc3nc(-c4ccccc4)cc(=O)[nH]3)nc2c1,1.2 µM
8,S=c1nc[nH]c2nc[nH]c12,> 13.3 µM (inactive)
9,COc1cc(/C=C/c2ccc3cccc(O)c3n2)cc(OC)c1OC,3.37 µM
10,N#Cc1c(NC(=O)/C=C/c2ccco2)sc2c1CCCC2,< 0.104 µM
11,COc1ccc(N/N=C(/N=Nc2nc(C)cc(=O)[nH]2)c2ccccc2)cc1,0.446 µM
12,COc1cc(/C=C/[N+](=O)[O-])ccc1O,6.5 µM
13,O=C(NCc1cccnc1)c1ccc(-c2cc3ccccc3oc2=O)cc1,1.34 µM
14,Cc1ccc(N=Cc2c(C)[nH]n(-c3nc4ccccc4[nH]3)c2=O)cc1,> 13.3 µM (inactive)
15,O=S(=O)(c1ccc(Cl)cc1)c1snnc1-c1ccccc1,0.594 µM
16,Cc1ccc(-c2nn(CC(=O)NCc3cc(-c4nn(C)c(=O)c5ccccc45)ccc3C)c(=O)c3ccccc23)cc1,> 13.3 µM (inactive)
17,Cn1cnc([N+](=O)[O-])c1Sc1ncnc2nc[nH]c12,> 13.3 µM (inactive)
18,COc1ccc2[nH]c(=O)c(CN(Cc3cccs3)S(=O)(=O)c3cccc4nsnc34)cc2c1,1.46 µM
19,CC(C)Oc1ccccc1C1CC(=O)Nc2cc3c(cc21)OCCO3 (stereo unspecified),0.307 µM
20,CCN(CC)C(=O)c1ccc(NC(=O)Nc2ccccc2F)cc1,> 13.3 µM (inactive)
21,Cc1ccc(C(C)C)c(OCc2ccc(C(=O)N/N=C/c3cccc(O)c3O)cc2)c1,0.496 µM
22,N#CC1=C(N)Oc2cc(N)ccc2C1c1cccc(Br)c1 (stereo unspecified),0.318 µM

row,SMILES,EC50
1,Cc1ccc(/C=N/NC(=O)c2n[nH]c3c2CCCC3)cc1,< 0.104 µM
2,Cc1ccc(/C=N/NC(=O)c2cc(-c3ccncc3)nc3ccccc23)o1,0.685 µM
3,O=C(Nc1ccc([N+](=O)[O-])cc1)Nc1ccon1,0.38 µM
4,CC1(C)C[C@H]2C=C(C=O)[C@]3(C=O)C[C@]3(C)[C@H]2C1,0.58 µM
5,CCOc1ccc(C2=Nn3c(nnc3-c3ccccc3OC)SC2)cc1,< 0.104 µM
6,COc1ccccc1/C=C1\SC(=O)N(CCC(=O)NCCCn2ccnc2)C1=O,> 13.3 µM (inactive)
7,CC[C@@]1(O)C(=O)OCc2c1cc1n(c2=O)Cc2cc3ccccc3nc2-1,< 0.0304 µM
8,O=[N+]([O-])c1cc(Br)c(Nc2ccccc2)c([N+](=O)[O-])c1,0.537 µM
9,C(=N\Nc1nc2ccccc2[nH]1)/c1ccc2ncccc2c1,> 13.3 µM (inactive)
10,N=c1c2c(-c3ccccc3)c(-c3ccccc3)n(Cc3ccco3)c2ncn1CCCn1ccnc1,1.27 µM
11,CCSc1cc(C2C(C#N)=C(N)Oc3n[nH]c(C)c32)c(C)o1 (stereo unspecified),11.5 µM
12,CC1(C)N=C(N)N=C(N)N1c1ccccc1,> 13.3 µM (inactive)
13,CC(C)C(=O)Nc1ccc(C(=O)NCc2cccnc2)cc1,0.742 µM
14,CCOC(=O)/C(=C\c1cccnc1)C(=O)c1cc(C(C)=O)c(Nc2ccccc2)s1,0.575 µM
15,Cc1ccc(-c2nnc(SCC(=O)Nc3ccccc3F)o2)cc1,> 13.3 µM (inactive)
16,CCc1nc(N)nc(N)c1-c1ccc(Cl)cc1,> 13.3 µM (inactive)
17,CCn1c(C)nc2cc(-c3nc4n(n3)Cc3ccccc3-4)ccc21,> 13.3 µM (inactive)
18,COc1ccc(/C=C2\CN(Cc3ccccc3)C/C(=C\c3ccc(OC)c(O)c3)C2=O)cc1O,0.559 µM
19,O=C(N/N=C/c1ccc([N+](=O)[O-])o1)c1cc2ccccc2o1,7.5 µM
20,O=C(CCCCCCCCCCC(=O)NCc1cccnc1)NCc1cccnc1,> 13.3 µM (inactive)
21,COc1ccc(N/C=C/C(=O)c2cc(OC)c(OC)c(OC)c2)cc1,0.206 µM
22,Cc1occc1C(=O)N/N=C/c1ccc(-c2ccccc2)cc1,> 13.3 µM (inactive)

row,SMILES,EC50
1,O=C1N(c2ccccc2)C[C@@H]2C[C@@H](c3cc4ccccc4o3)N3CCC[C@@]123,0.61 µM
2,Cc1onc(C(=O)N2CCN(C(c3ccccc3)c3ccccc3)CC2)c1[N+](=O)[O-],0.762 µM
3,COc1cc(NC(=O)c2cccs2)c(OC)cc1NC(=O)CCC(=O)Nc1ccc2ncccc2c1,> 13.3 µM (inactive)
4,Cc1ccc(N(C(=O)CCl)C(C(=O)NC2CCCCC2)c2cccnc2)cc1C (stereo unspecified),< 0.0892 µM
5,Cc1cccc(Nc2nc(N)nc(CCl)n2)c1,2.21 µM
6,COc1ccccc1N(C(=O)CCl)c1cn(C(C)=O)c2ccccc12,0.717 µM
7,Cc1cccnc1Nc1nc(-c2ccccn2)cs1,< 0.142 µM
8,COc1ccc(/C=C/c2cc(-c3ccc(C)cc3)o[n+]2C)cc1,0.654 µM
9,COc1cccc2c1C(=O)c1c(O)c3c(c(O)c1C2=O)C[C@@](O)(C(=O)CO)C[C@@H]3O[C@H]1C[C@H](N)[C@@H](O)[C@H](C)O1,< 0.104 µM
10,CC(C)c1onc(C(=O)N2CCN(C(c3ccccc3)c3ccccc3)CC2)c1[N+](=O)[O-],0.522 µM
11,COc1ccc(N(C(=O)CCl)C(C(=O)NCCc2ccccc2)c2cccs2)cc1 (stereo unspecified),0.428 µM
12,CCCCCCCCCCCCn1ccc(=N)cc1,0.522 µM
13,Cc1ccccc1Nc1nc(N)nc(CCl)n1,2.29 µM
14,CCCCCOc1ccc(Br)cc1/C(C)=N/NC1=NCCN1,0.697 µM
15,Oc1c(N=Nc2ccccn2)ccc2ccccc12,0.241 µM
16,CCCCOc1ccc(Br)cc1/C(C)=N/NC1=NCCN1,0.585 µM
17,O=Cc1cc2ccccc2nc1SCc1ccc(Cl)c(Cl)c1,< 0.104 µM
18,CCN(CC)CCCNC(=O)c1cc(-c2ccccc2)c(N2CCCCC2)s1,> 13.3 µM (inactive)
